The test system of experiment [1] is Mycobacterium tuberculosis. The experiment is described as follows: Antimycobacterial activity against Mycobacterium tuberculosis H37Rv ATCC 27294 microplate alamar blue assay. It is filed as functional. In general terms: Alamar Blue is a resazurin reagent that responds to reducing activity.
Experiment [2] can be described thus: Selectivity index, ratio of CC50 for african green monkey Vero cells to MIC for Mycobacterium tuberculosis H37Rv ATCC 27294. It is filed as functional.

Converted amounts (≈) assume the structure as drawn.

One may read the IC90 as the point of the concentration-response curve where the effect stands at 90%. In experiment [1], `COc1ccc2c(c1)[n+]([O-])c(C(=O)NCc1ccc(C(F)(F)F)cc1)c(C)[n+]2[O-]` gave an IC90 of more than 100 µg/mL.

In turn, `CO[C@H]1/C=C/O[C@@]2(C)Oc3c(C)c(O)c4c(O)c(c(/C=N/N5CCN(C)CC5)c(O)c4c3C2=O)NC(=O)/C(C)=C\C=C\[C@H](C)[C@H](O)[C@@H](C)[C@@H](O)[C@@H](C)[C@H](OC(C)=O)[C@@H]1C` [RIFAMPIN] registered an IC90 in experiment [1] of 0.015 µg/mL (≈ 0.0182 µM). In experiment [2], the “Selectivity Index” value is more than 800.

`Cc1c(C(=O)NCC(c2ccccc2)c2ccccc2)[n+]([O-])c2cc(Cl)ccc2[n+]1[O-]`: the IC90 in experiment [1] was found to be 60.4 µg/mL (≈ 139 µM).

As for `O=C(NCCc1ccccc1)c1c(-c2ccccc2)[n+]([O-])c2ccccc2[n+]1[O-]`, in experiment [1], the 90% effect level (IC90) was put at 18.6 µg/mL (≈ 48.3 µM).

In experiment [1], `O=C(Nc1ccccc1)c1c(-c2ccccc2)[n+]([O-])c2ccccc2[n+]1[O-]` registered an IC90 of 27 µg/mL (≈ 75.5 µM).

On to `Cc1c(C(=O)NCc2ccc(C(F)(F)F)cc2)[n+]([O-])c2cc(C(F)(F)F)ccc2[n+]1[O-]`, for which, in experiment [1], it took 3.38 µg/mL (≈ 7.59 µM) to reach the 90% level (IC90). In addition, the “Selectivity Index” value in experiment [2] is recorded as more than 11.82.

On to `O=C(NCc1ccccc1)c1c(-c2ccccc2)[n+]([O-])c2ccc(F)cc2[n+]1[O-]`, for which, in experiment [1], it took 3.86 µg/mL (≈ 9.91 µM) to reach the 90% level (IC90). Moreover, the “Selectivity Index” value in experiment [2] is given as 4.62.

For `Cc1c(C(=O)NCc2ccc(C(F)(F)F)cc2)[n+]([O-])c2ccccc2[n+]1[O-]`, the IC90 in experiment [1] amounted to 16.8 µg/mL (≈ 44.6 µM).

`Cc1c(C(=O)NCc2ccc3c(c2)OCO3)[n+]([O-])c2cc(Cl)c(Cl)cc2[n+]1[O-]` gave an IC90 in experiment [1] of 34.9 µg/mL (≈ 82.7 µM).

The molecule `O=C(Nc1ccccc1)c1c(-c2ccccc2)[n+]([O-])c2ccc(Cl)cc2[n+]1[O-]` displayed an IC90 in experiment [1] of 6.71 µg/mL (≈ 17.1 µM). Besides, the “Selectivity Index” value in experiment [2] is 1.34.

Turning to `Cc1c(C(=O)NCc2ccc(Br)cc2)[n+]([O-])c2ccccc2[n+]1[O-]`, the 90% effect level in experiment [1] (IC90) was put at 15.6 µg/mL (≈ 40.2 µM).

`Cc1c(C(=O)NCc2ccc(Br)cc2)[n+]([O-])c2cc(Cl)ccc2[n+]1[O-]` displayed an IC90 in experiment [1] of 5.33 µg/mL (≈ 12.6 µM). In addition, the “Selectivity Index” value in experiment [2] is listed as more than 7.5.

`Cc1c(C(=O)NCc2ccc(Cl)cc2)[n+]([O-])c2cc(Cl)c(Cl)cc2[n+]1[O-]`: the IC90 in experiment [1] was 51.9 µg/mL (≈ 126 µM).

`Cc1c(C(=O)NCC(c2ccccc2)c2ccccc2)[n+]([O-])c2cc(Cl)c(Cl)cc2[n+]1[O-]`: the IC90 in experiment [1] is 66.5 µg/mL (≈ 142 µM).

In experiment [1], `Cc1ccc2c(c1)[n+]([O-])c(C(=O)NCc1ccc(Br)cc1)c(C)[n+]2[O-]` registered an IC90 of 78.2 µg/mL (≈ 194 µM).

For the molecule `Cc1ccc(CNC(=O)c2c(C)[n+]([O-])c3ccccc3[n+]2[O-])cc1`, the 90% effect level in experiment [1] (IC90) was put at 6.76 µg/mL (≈ 20.9 µM). For the same molecule, the “Selectivity Index” value in experiment [2] is more than 5.92.

As to `O=C(NCc1ccccc1)c1c(-c2ccccc2)[n+]([O-])c2cc(Cl)c(Cl)cc2[n+]1[O-]`, the IC90 in experiment [1] was determined as 25.4 µg/mL (≈ 57.8 µM).

Molecule `Cc1ccc2c(c1)[n+]([O-])c(C(=O)NCc1ccccc1)c(-c1ccccc1)[n+]2[O-]` yielded an IC90 in experiment [1] of 13.9 µg/mL (≈ 36.1 µM).

As to `O=C(Nc1ccccc1)c1c(-c2ccccc2)[n+]([O-])c2cc(Cl)c(Cl)cc2[n+]1[O-]`, the IC90 in experiment [1] was found to be 6.63 µg/mL (≈ 15.6 µM). In experiment [2], the “Selectivity Index” value was 0.84.

Consider `COc1ccc2c(c1)[n+]([O-])c(C(=O)Nc1ccccc1)c(-c1ccccc1)[n+]2[O-]`, for which the IC90 in experiment [1] stood at 26.8 µg/mL (≈ 69.3 µM).

With `Cc1ccc2c(c1)[n+]([O-])c(C(=O)Nc1ccccc1)c(-c1ccccc1)[n+]2[O-]`, the IC90 in experiment [1] was determined as 24.6 µg/mL (≈ 66.4 µM).

For the molecule `O=C(NCc1ccccc1)c1c(-c2ccccc2)[n+]([O-])c2ccc(C(F)(F)F)cc2[n+]1[O-]`, the IC90 in experiment [1] was more than 100 µg/mL.

Molecule `Cc1c(C(=O)NCc2ccc(C(F)(F)F)cc2)[n+]([O-])c2cc(Cl)ccc2[n+]1[O-]` returned an IC90 in experiment [1] of 6.13 µg/mL (≈ 14.9 µM). In addition, the “Selectivity Index” value in experiment [2] is listed as more than 6.52.

Regarding `Cc1ccc2c(c1)[n+]([O-])c(C(=O)NCc1ccc3c(c1)OCO3)c(C)[n+]2[O-]`, it took 13.2 µg/mL (≈ 36 µM) to reach the 90% level in experiment [1] (IC90).

As for `Cc1c(C(=O)NCc2ccc(C(F)(F)F)cc2)[n+]([O-])c2cc(Cl)c(Cl)cc2[n+]1[O-]`, in experiment [1], it took 6.58 µg/mL (≈ 14.7 µM) to reach the 90% level (IC90). Moreover, the “Selectivity Index” value in experiment [2] is on record as more than 6.08.

Molecule `Cc1c(C(=O)NCc2ccc(Cl)cc2)[n+]([O-])c2ccccc2[n+]1[O-]` registered an IC90 in experiment [1] of 11 µg/mL (≈ 32.1 µM).

Regarding `Cc1ccc(CNC(=O)c2c(C)[n+]([O-])c3ccc(Cl)cc3[n+]2[O-])cc1`, the 90% effect level in experiment [1] (IC90) was put at 32 µg/mL (≈ 89.5 µM).

In experiment [1], `Cc1c(C(=O)NCc2ccc3c(c2)OCO3)[n+]([O-])c2cc(Cl)ccc2[n+]1[O-]` showed an IC90 of 6.99 µg/mL (≈ 18 µM). In addition, the “Selectivity Index” value in experiment [2] is more than 5.72.

`O=C(Nc1ccccc1)c1c(-c2ccccc2)[n+]([O-])c2ccc(F)cc2[n+]1[O-]` yielded an IC90 in experiment [1] of 17.9 µg/mL (≈ 47.8 µM).

In turn, `Cc1ccc2c(c1)[n+]([O-])c(C(=O)NCc1ccc(Cl)cc1)c(C)[n+]2[O-]` registered an IC90 in experiment [1] of 14.6 µg/mL (≈ 40.7 µM).

In experiment [1], `COc1ccc2c(c1)[n+]([O-])c(C(=O)NCc1ccccc1)c(-c1ccccc1)[n+]2[O-]` displayed an IC90 of 14.6 µg/mL (≈ 36.3 µM).

Consider `O=C(NCCc1ccccc1)c1c(-c2ccccc2)[n+]([O-])c2ccc(Cl)cc2[n+]1[O-]`, for which, in experiment [1], the IC90 amounted to 15.4 µg/mL (≈ 36.7 µM).

Take `O=C(Nc1ccccc1)c1c(-c2ccccc2)[n+]([O-])c2ccc(C(F)(F)F)cc2[n+]1[O-]`: the 90% effect level in experiment [1] (IC90) was put at 19.1 µg/mL (≈ 44.9 µM).

Turning to `Cc1c(C(=O)NCc2ccc(Cl)cc2)[n+]([O-])c2cc(Cl)ccc2[n+]1[O-]`, the 90% effect level in experiment [1] (IC90) was put at 29.7 µg/mL (≈ 78.5 µM).

In experiment [1], `Cc1ccc(CNC(=O)c2c(C)[n+]([O-])c3ccc(C)cc3[n+]2[O-])cc1` had an IC90 of 99.9 µg/mL (≈ 296 µM).

`Cc1c(C(=O)NCC(c2ccccc2)c2ccccc2)[n+]([O-])c2ccccc2[n+]1[O-]` had an IC90 in experiment [1] of 16 µg/mL (≈ 40 µM).

In experiment [1], `O=C(NCc1ccccc1)c1c(-c2ccccc2)[n+]([O-])c2ccc(Cl)cc2[n+]1[O-]` showed an IC90 of 3.39 µg/mL (≈ 8.35 µM). Also, in experiment [2], the “Selectivity Index” value is more than 11.79.

`Cc1c(C(=O)NCc2ccc(Br)cc2)[n+]([O-])c2cc(Cl)c(Cl)cc2[n+]1[O-]` returned a 90% effect concentration (IC90) in experiment [1] of 6.92 µg/mL (≈ 15.1 µM). In experiment [2], the “Selectivity Index” value is more than 5.78.

Regarding `Cc1ccc2c(c1)[n+]([O-])c(C(=O)NCC(c1ccccc1)c1ccccc1)c(C)[n+]2[O-]`, the IC90 in experiment [1] came to 16.8 µg/mL (≈ 40.6 µM).

Molecule `Cc1ccc2c(c1)[n+]([O-])c(C(=O)NCc1ccc(C(F)(F)F)cc1)c(C)[n+]2[O-]` returned an IC90 in experiment [1] of more than 100 µg/mL.

Take `Cc1c(C(=O)NCc2ccc(C(F)(F)F)cc2)[n+]([O-])c2cc(F)ccc2[n+]1[O-]`: in experiment [1], it took 4.48 µg/mL (≈ 11.3 µM) to reach the 90% level (IC90). For the same molecule, the “Selectivity Index” value in experiment [2] was more than 8.94.

In turn, `Cc1ccc(CNC(=O)c2c(C)[n+]([O-])c3cc(Cl)c(Cl)cc3[n+]2[O-])cc1` had an IC90 in experiment [1] of more than 100 µg/mL.

In experiment [1], `O=C(NCc1ccccc1)c1c(-c2ccccc2)[n+]([O-])c2ccccc2[n+]1[O-]` showed an IC90 of 6.71 µg/mL (≈ 18.1 µM). Further, the “Selectivity Index” value in experiment [2] is given as more than 5.96.

In turn, `Cc1c(C(=O)NCc2ccc3c(c2)OCO3)[n+]([O-])c2ccccc2[n+]1[O-]` came in with an IC90 in experiment [1] of 22.8 µg/mL (≈ 64.4 µM).

The values above are taken from ChEMBL document CHEMBL1250471, “Synthesis and antimycobacterial activity of new quinoxaline-2-carboxamide 1,4-di-N-oxide derivatives” (2010).
